Results reported in patent US10960013B2, “J-series prostaglandin-ethanolamides as novel therapeutics for skin and/or oral disorders” (East Carolina University, priority 2016, dated 2021).
Entries after “also recorded” stand apart in the source; their conditions may differ.

Assays:
[1] = system: tumorigenic (JWF2) and non-tumorigenic (HaCaT) cells; experiment: Cell viability (MTS) of tumorigenic and non-tumorigenic keratinocytes treated with 15dPMJ2; format: cell-based; conditions: 12 hours
Procedure: Tumorigenic and non-tumorigenic keratinocytes were treated with different concentrations of 15dPMJ2, vehicle, or were untreated for 12 hours. Cell viability was detected by conducting MTS experiments. Data represent the mean±SEM of three independent experiments and are expressed as the percent of the untreated cells. *P<0.01.
(§1) To assess the in vivo antineoplastic action of 15dPMJ2, the subcutaneous mouse tumor model was utilized. Melanoma cells were subcutaneously implanted in the flank region of C57BL/6 mice and treated with 0.5 mg/kg 15dPMJ2, vehicle [0.1% DMSO in phosphate buffered saline (PBS)], or were untreated. […] To determine if 15dPMJ2 induced ER stress the expression of CHOP10 was detected in the tumor sections.

[2] = system: Melanoma cells subcutaneously implanted in the flank region of C57BL/6 mice; experiment: Subcutaneous mouse tumor model, tumor weight; format: in vivo; conditions: 0.5 mg/kg for 5 days; compared to vehicle and untreated animals; P<0.01
Procedure: Tumors grown in C57BL/6 mice were either untreated (UT), vehicle treated (VEH), or treated with 0.5 mg/kg 15dPMJ2 for 5 days. Tumor weights were determined. #P<0.01 compared to untreated; *P<0.01 compared to vehicle treated (one-way ANOVA with Tukey's post-hoc test).
as §1

[3] = system: CHOP10; experiment: CHOP10 expression (ER stress) in excised tumor sections; format: in vivo, C57BL/6 mice; conditions: 0.5 mg/kg for 5 days
Procedure: as §1

For CCCCC/C=C/C=C1/C(=O)C=CC1C/C=C/CCCC(=O)NCCO (stereo not shown) [15dPMJ2, 15-deoxy Δ^12,14-prostagladin J2-ethanolamide], the “toxicity towards tumorigenic keratinocytes relative to non-tumorigenic keratinocytes” value ([1]; at 5 μM, JWF2 vs HaCaT, MTS cell viability) was 4 fold, the “selective toxicity (cell viability, tumorigenic vs non-tumorigenic keratinocytes)” value ([1]; different concentrations, MTS) was “selectively toxic” and the “tumor weight / solid tumor growth” value [2] was “statistically significant reduction in tumor weight; also recorded: inhibits solid tumor growth”. For the same compound, the “CHOP10 expression in the tumors (ER stress)” value [3] was “markedly increased CHOP10 expression; also recorded: increases ER stress”.
